# Laboratory results reported in the supplement of paper PMC10307832.
# Compound: CC(C)(C)c1nc(-c2cccc(NS(=O)(=O)c3c(F)cccc3F)c2F)c(-c2ccnc(N)n2)s1 [Dabrafenib] + C[C@]1(O)C[C@@H](c2nc(-c3ccc4ccc(-c5ccccc5)nc4c3)c3c(N)nccn32)C1 [Linsitinib] (partner 1 µM)
# Test: relative viability (nuclei count vs DMSO), 5 days (fraction); higher = more cells survive
# Details: first compound 0.3 µM
# Method in brief: (§1)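 Each reported value is a median over duplicate plates. It expresses relative viability: treated-well nuclei count divided by vehicle-well nuclei count. Lung cancer cell lines in 1536-well plates were dosed by pin tool a day after seeding, alone with one drug or with a fixed anchor-drug dose plus five library-drug doses (not always all listed) in √10 steps, and nuclei were counted after 5 days.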
row,Cell Line,relative viability
1,201T,1.05
2,NCI-H1666,0.931
3,NCI-H2023,0.792
4,NCI-H322M,0.895
5,HARA,1.3
6,SK-MES-1,1.12

# Compound: NC(=O)c1ccc(N(C(N)=O)c2c(F)cccc2F)nc1-c1ccc(F)cc1F [VX-702] + COc1cccc2cc(-c3nc([C@H]4CC[C@H](C(=O)O)CC4)n4ncnc(N)c34)[nH]c12 [OSI-027] (partner 0.5 µM)
# Test: as above
# Details: first compound 0.02 µM
# Method in brief: as §1
row,Cell Line,relative viability
1,SW 1573,0.715
2,NCI-H838,0.394
3,EPLC-272H,0.298
4,NCI-H3122,0.922
5,NCI-H1563,0.77
6,NCI-H1915,0.642
7,NCI-H727,0.721
8,NCI-H1975,0.753
9,LK-2,0.21
10,HCC-366,1.09
11,NCI-H2087,0.55
12,LCLC-97TM1,0.424
13,NCI-H661,0.708
14,NCI-H2405,0.677
15,NCI-H1993,0.516
16,PC-3 [JPC-3],0.8
17,NCI-H2009,0.688
18,NCI-H2347,0.491
19,NCI-H520,0.321
20,LXF-289,0.786
21,NCI-H358,0.867
22,LC-2-ad,0.844
23,201T,0.732
24,NCI-H1666,0.937
25,NCI-H2023,0.349
26,NCI-H322M,0.567
27,HARA,0.458
28,SK-MES-1,0.669

# Same assay, conditions: first compound 0.2 µM
row,Cell Line,relative viability
1,SW 1573,0.636
2,NCI-H838,0.356
3,EPLC-272H,0.304
4,NCI-H3122,0.874
5,NCI-H1563,0.748
6,NCI-H1915,0.587
7,NCI-H727,0.614
8,NCI-H1975,0.756
9,LK-2,0.211
10,HCC-366,0.899
11,NCI-H2087,0.471
12,LCLC-97TM1,0.595
13,NCI-H661,0.702
14,NCI-H2405,0.641
15,NCI-H1993,0.518
16,PC-3 [JPC-3],0.768
17,NCI-H2009,0.88
18,NCI-H520,0.287
19,LXF-289,0.784
20,NCI-H358,0.845
21,LC-2-ad,0.814
22,201T,0.499
23,NCI-H2023,0.445
24,NCI-H322M,0.517
25,HARA,0.412
26,SK-MES-1,0.666

# Same assay, conditions: first compound 0.6325 µM
row,Cell Line,relative viability
1,SW 1573,0.504
2,NCI-H838,0.448
3,EPLC-272H,0.279
4,NCI-H3122,0.917
5,NCI-H1563,0.738
6,NCI-H1915,0.595
7,NCI-H727,0.543
8,NCI-H1975,0.829
9,LK-2,0.167
10,HCC-366,0.932
11,NCI-H2087,0.48
12,LCLC-97TM1,0.37
13,NCI-H661,0.748
14,NCI-H2405,0.544
15,NCI-H1993,0.563
16,PC-3 [JPC-3],0.818
17,NCI-H2009,0.774
18,NCI-H2347,0.494
19,NCI-H520,0.268
20,LXF-289,0.772
21,NCI-H358,0.711
22,LC-2-ad,0.999
23,201T,0.69
24,NCI-H1666,0.789
25,NCI-H2023,0.441
26,NCI-H322M,0.566
27,HARA,0.446
28,SK-MES-1,0.584

# Same assay, conditions: first compound 2 µM
row,Cell Line,relative viability
1,SW 1573,0.482
2,NCI-H838,0.409
3,EPLC-272H,0.248
4,NCI-H3122,1.05
5,NCI-H1563,0.722
6,NCI-H1915,0.67
7,NCI-H727,0.642
8,NCI-H1975,0.779
9,LK-2,0.183
10,HCC-366,0.107
11,NCI-H2087,0.497
12,LCLC-97TM1,0.404
13,NCI-H661,0.893
14,NCI-H2405,0.668
15,NCI-H1993,0.579
16,PC-3 [JPC-3],0.644
17,NCI-H2009,0.801
18,NCI-H2347,0.336
19,NCI-H520,0.23
20,LXF-289,0.683
21,NCI-H358,0.794
22,LC-2-ad,0.949
23,201T,0.735
24,NCI-H1666,0.635
25,NCI-H2023,0.416
26,NCI-H322M,0.62
27,HARA,0.479
28,SK-MES-1,0.542

# Compound: CC(C)(C)c1nc(-c2cccc(NS(=O)(=O)c3c(F)cccc3F)c2F)c(-c2ccnc(N)n2)s1 [Dabrafenib] + C[C@@H](Oc1cc(-c2cnn(C3CCNCC3)c2)cnc1N)c1c(Cl)ccc(F)c1Cl [Crizotinib] (partner 1 µM)
# Test: as above
# Details: first compound 0.003 µM
# Method in brief: as §1
row,Cell Line,relative viability
1,SW 1573,0.802
2,NCI-H838,0.858
3,NCI-H3122,0.31
4,NCI-H1563,0.865
5,NCI-H1915,0.994
6,NCI-H1975,0.967
7,LK-2,0.211
8,NCI-H2087,0.821
